Data on twelve compounds can be found in patent US11970493B2, “Autotaxin inhibitor compounds” (ILDONG PHARMACEUTICAL CO., LTD., priority 2020, dated 2024).

For orientation: IC50 means the concentration that inhibits the measured activity by half. Low values mean higher potency, high ones lower potency. Usually AUC(0-inf) stands for total exposure, with the tail of the curve extrapolated. Higher therefore signals high exposure. As usually defined, the bioavailability is the share of a dose that reaches the circulation, judged against a reference dose that is usually intravenous. The Cmax is the maximum level reached in the sampled fluid or tissue.

The subject of data set [1] is LPA 18:2 level in mouse plasma. The experiment in a line: In vitro LPA assay, reduction of LPA 18:2 level in mouse plasma (LC-MS/MS). It counts as biochemical. The settings on record: 2 hr at 37° C., LPA 18:2 reduction. How it is done: (§1) Autotaxin (ATX) plays an important role in lysophosphatidic acid (LPA) signaling. An in vitro LPA assay was conducted to determine IC50 values of the test compounds on reduction of LPA 18:2 level in rat or mouse plasma. This example describes the assay data (IC50 value ranges) of exemplary compounds from LPA assays using mouse and rat plasma. Compound GPLG-1690 was assayed as a reference compound.
(§2) The 10 mM DMSO stock solutions of test compounds and 4-fold serial dilutions of the test compounds were prepared at various concentrations. The diluted solutions of the compounds were diluted with 1×PBS (pH 7.5) buffer. 38 μL of rat or mouse plasma samples were mixed with 2 μL of the diluted solutions of the compounds or 2% DMSO solutions in 96-well plate (final 0.1% DMSO). After incubating for 2 hr at 37° C., 120 μL MeOH containing IS (250 ng/mL of LPA 17:0) was added to each well. Mixture was vortexed for 1 min, and then centrifuged for 30 min (4000 rpm, 4° C.). 100 μL supernatant was transferred to a 96-well plate containing 100 μL pure water and the plate was shaken for 10 min. 5 μL supernatant was injected into LC-MS/MS system. No calibration curve will be prepared for LPA 18:2 and all quantifications were performed based on peak area ratios (LPA 18:2/LPA 17:0). For each concentration of compound LPA data were expressed as percentage of reduction (% reduction) using the formula. 100−[((LPA ratio-LPA ratio in control sample after 0 hr incubation)/(LPA ratio in control sample after 2 hr incubation—LPA ratio in control sample after 0 hr incubation))*100]. Data

Another data set addresses hATX/ENPP2 (Homo sapiens, UniProt Q13822). The experiment in a line: hATX/ENPP2 biochemical assay using 16:0-LPC as substrate (Amplex Red/choline oxidase/HRP fluorescence). The note with it: hENPP2 2.5 nM, LPC (16:0) substrate. The gist of the method:
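Enzyme preincubated with compounds 15 min at room temperature in 50 mM Tris-HCl pH 8.0, 140 mM NaCl, 5 mM CaCl2, 0.01% Triton X-100. Reaction started with 80 μM LPC (16:0) stock plus Amplex Red/choline oxidase/HRP mix; fluorescence (ex 530/em 590 nm) read kinetically. IC50 from slope between 60 and 70 min.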

Data set [2] concerns LPA 18:2 level in rat plasma. The data set is described as follows: In vitro LPA assay, reduction of LPA 18:2 level in rat plasma (LC-MS/MS). The note with it: 2 hr at 37° C., LPA 18:2 reduction. It is filed as biochemical. How it is done:
as §1, §2

Data set [3] in a line: Mouse PK study (IV and PO). It is filed as in vivo. The settings on record: male, C57BL/6, mouse, plasma, male C57BL/6 mice; for AUC(0-inf): IV 2 mg/kg and PO 10 mg/kg study; for bioavailability / Cmax: po, 10 mg/kg; for bioavailability: IV 2 mg/kg and PO 10 mg/kg, read-out: F % (bioavailability); for Cmax: PO group 10 mg/kg. How it is done: This example describes the pharmacokinetic (PK) data obtained for various compounds of the present disclosure, from studies using mice. The following PK parameters were calculated: • Bioavailability (F %) were calculated using the linear/log trapezoidal rule • Peak plasma concentrations (Cmax (ng/mL)) were taken directly from the plasma concentration vs. time profiles for the PO group • Area under the curve e.g., the area under the concentration curve from time 0 to infinity (AUC0-inf(ng*h/mL)). Experimental Procedures
After intravenous (IV) and oral (PO) administration at 2 mg/kg and 10 mg/kg to male C57BL/6 mice, respectively, the blood samples were collected at the designed sampling time points. All blood samples were transferred into pre-chilled commercial polyethylene microcentrifuge tubes containing K2-EDTA as an anticoagulant. Samples were processed for plasma by centrifugation. Plasma samples was transferred into polypropylene tubes pre-chilled on dry ice and then quickly frozen over dry ice and kept at −70±10° C. until LC-MS/MS analysis. Mice plasma samples were analyzed using qualified bioanalytical methods based on protein precipitation followed by LC-MS/MS analysis. Individual plasma concentration data of each compound was subjected to noncompartmental pharmacokinetic analysis using Phoenix WinNonlin™. Nominal doses were used for pharmacokinetic parameters calculation.

Some results are limits rather than exact numbers.

Regarding `CCc1nc2ccc(-c3cnc(N4CCN(C(=O)C5(CO)CC5)CC4)nc3)cn2c1N(C)c1nc(-c2ccc(F)cc2)c(C#N)s1` [Compound 10, 2-((2-ethyl-6-(2-(4-(1-(hydroxymethyl)cyclopropane-1-carbonyl)piperazin-1-yl)pyrimidin-5-yl)imidazo[1,2-a]pyridin-3-yl)(methyl)amino)-4-(4-fluorophenyl)thiazole-5-carbonitrile], the IC50 is 200 to 800 nM in data set [1], no more than 20 nM on hATX/ENPP2 and no more than 200 nM in data set [2]. For the same compound, in data set [3], the AUC(0-inf) came to 26700 ng·h/mL. Further, the bioavailability in data set [3] was determined as 28%. This compound also came in with a Cmax in data set [3] of 4950 ng/mL.
For the compound `CCc1nc2ccc(-c3cnc(N4CC(NC5(CO)CC5)C4)nc3)cn2c1N(C)c1nc(-c2ccc(F)cc2)c(C#N)s1` [Compound 30, 2-((2-ethyl-6-(2-(3-((1-(hydroxymethyl)cyclopropyl)amino)azetidin-1-yl)pyrimidin-5-yl)imidazo[1,2-a]pyridin-3-yl)(methyl)amino)-4-(4-fluorophenyl)thiazole-5-carbonitrile], the IC50 in data set [1] is 200 to 800 nM. The compound further registered a half-maximal inhibitory concentration (IC50) against hATX/ENPP2 of 20 to 200 nM. In data set [2], this compound registered an IC50 of 200 to 800 nM. In data set [3], the AUC(0-inf) stood at 21700 ng·h/mL, the bioavailability came to 42% and the Cmax was 4310 ng/mL.
Regarding `CCc1nc2ccc(-c3cnc(N4CCN(C(=O)N5CC[C@@H](O)C5)CC4)nc3)cn2c1N(C)c1nc(-c2ccc(F)cc2)c(C#N)s1` [Compound 43, (R)-2-((2-ethyl-6-(2-(4-(3-hydroxypyrrolidine-1-carbonyl)piperazin-1-yl)pyrimidin-5-yl)imidazo[1,2-a]pyridin-3-yl)(methyl)amino)-4-(4-fluorophenyl)thiazole-5-carbonitrile], the IC50 in data set [1] is no more than 200 nM. Further, at hATX/ENPP2, the IC50 was no more than 20 nM. The same compound showed an IC50 in data set [2] of no more than 200 nM. Also, in data set [3], the AUC(0-inf) is 31000 ng·h/mL, the bioavailability was found to be 39.5% and the concentration peaked (Cmax) at 5170 ng/mL.
Compound `CCc1nc2ccc(-c3cnc(N4CCN(C(=O)N5CC[C@H](O)C5)CC4)nc3)cn2c1N(C)c1nc(-c2ccc(F)cc2)c(C#N)s1` [Compound 44, (S)-2-((2-ethyl-6-(2-(4-(3-hydroxypyrrolidine-1-carbonyl)piperazin-1-yl)pyrimidin-5-yl)imidazo[1,2-a]pyridin-3-yl)(methyl)amino)-4-(4-fluorophenvl)thiazole-5-carbonitrile] returned an IC50 in data set [1] of 200 to 800 nM. Besides, the IC50 at hATX/ENPP2 is no more than 20 nM. This compound yielded an IC50 in data set [2] of 200 to 800 nM. In addition, in data set [3], the AUC(0-inf) is 25000 ng·h/mL, the bioavailability is 33.4% and the Cmax worked out at 4730 ng/mL.
`CCc1nc2ccc(-c3ccc(N4CCN(C(=O)N5CC[C@@H](O)C5)CC4)nc3)cn2c1N(C)c1nc(-c2ccc(F)cc2)c(C#N)s1` [Compound 92, (R)-2-((2-ethyl-6-(6-(4-(3-hydroxypyrrolidine-1-carbonyl)piperazin-1-yl)pyridin-3-yl)imidazo[1,2-a]pyridin-3-yl)(methyl)amino)-4-(4-fluorophenyl)thiazole-5-carbonitrile] returned an IC50 in data set [1] of no more than 200 nM. Further, the IC50 at hATX/ENPP2 was no more than 20 nM. Moreover, the IC50 in data set [2] is 200 to 800 nM. Further, in data set [3], the area under the curve AUC(0-inf) was 22800 ng·h/mL, the bioavailability is 25% and the concentration peaked (Cmax) at 4260 ng/mL.
Take `CCc1nc2ccc(-c3ccc(N4CCC(C(=O)N5CCCC5)CC4)nc3)cn2c1N(C)c1nc(-c2ccc(F)cc2)c(C#N)s1` [Compound 113, 2-((2-ethyl-6-(6-(4-(pyrrolidine-1-carbonyl)piperidin-1-yl)pyridin-3-yl)imidazo[1,2-a]pyridin-3-yl)(methyl)amino)-4-(4-fluorophenyl)thiazole-5-carbonitrile]: the IC50 in data set [1] is greater than 800 nM. On hATX/ENPP2, the IC50 was no more than 20 nM. In data set [2], this compound had an IC50 of no more than 200 nM. In data set [3], the AUC(0-inf) worked out at 40500 ng·h/mL, the bioavailability is 44.7% and the Cmax worked out at 6530 ng/mL.
Take `CCc1nc2ccc(-c3ccc(N4CCC(C(=O)N5CC[C@@H](O)C5)CC4)nc3)cn2c1N(C)c1nc(-c2ccc(F)cc2)c(C#N)s1` [Compound 114, (R)-2-((2-ethyl-6-(6-(4-(3-hydroxypyrrolidine-1-carbonyl)piperidin-1-yl)pyridin-3-yl)imidazo[1,2-a]pyridin-3-yl)(methyl)amino)-4-(4-fluorophenyl)thiazole-5-carbonitrile]: the figures for the IC50 (in data set [1]; against hATX/ENPP2; in data set [2]) were 200 to 800 nM, no more than 20 nM and 200 to 800 nM, respectively. The compound further registered an AUC(0-inf) in data set [3] of 38000 ng·h/mL. Besides, the bioavailability in data set [3] amounted to 28.4%. The same compound came in with a Cmax in data set [3] of 7040 ng/mL.
With `CCc1nc2ccc(-c3cnc(N4CCC(C(=O)N5CCCC5)CC4)nc3)cn2c1N(C)c1nc(-c2ccc(F)cc2)c(C#N)s1` [Compound 115, 2-((2-ethyl-6-(2-(4-(pyrrolidine-1-carbonyl)piperidin-1-yl)pyrimidin-5-yl)imidazo [1,2-a]pyridin-3-yl)(methyl)amino)-4-(4-fluorophenyl)thiazole-5-carbonitrile], the IC50 was 200 to 800 nM in data set [1], no more than 20 nM against hATX/ENPP2 and no more than 200 nM in data set [2]. Moreover, the AUC(0-inf) in data set [3] was found to be 37100 ng·h/mL. In data set [3], the bioavailability was 48.5%.
As for `CCc1nc2ccc(-c3ccc(N4CCC(C(=O)N5CCC(O)CC5)CC4)nc3)cn2c1N(C)c1nc(-c2ccc(F)cc2)c(C#N)s1` [Compound 119, 2-((2-ethyl-6-(6-(4-(4-hydroxypiperidine-1-carbonyl)piperidin-1-yl)pyridin-3-yl)imidazo[1,2-a]pyridin-3-yl)(methyl)amino)-4-(4-fluorophenyl)thiazole-5-carbonitrile], the IC50 is 200 to 800 nM in data set [1], no more than 20 nM against hATX/ENPP2 and 200 to 800 nM in data set [2]. Moreover, the AUC(0-inf) in data set [3] is 57100 ng·h/mL. In addition, in data set [3], the bioavailability turned out to be 33.1%. In data set [3], this compound returned a Cmax of 7680 ng/mL.
For the compound `CCc1nc2ccc(-c3ccc(N4CCC(C(=O)N5CCCCC5)CC4)nc3)cn2c1N(C)c1nc(-c2ccc(F)cc2)c(C#N)s1` [Compound 121, 2-((2-ethyl-6-(6-(4-(piperidine-1-carbonyl)piperidin-1-yl)pyridin-3-yl)imidazo[1,2-a]pyridin-3-yl)(methyl)amino)-4-(4-fluorophenyl)thiazole-5-carbonitrile], the IC50 in data set [1] is 200 to 800 nM; against hATX/ENPP2, 20 to 200 nM; in data set [2] it was no more than 200 nM.
`CCc1nc2ccc(-c3cnc(N4CC(C(=O)N5CCC5)C4)nc3)cn2c1N(C)c1nc(-c2ccc(F)cc2)c(C#N)s1` [Compound 125, 2-((6-(2-(3-(azetidine-1-carbonyl)azetidin-1-yl)pyrimidin-5-yl)-2-ethylimidazo[1,2-a]pyridin-3-yl)(methyl)amino)-4-(4-fluorophenyl)thiazole-5-carbonitrile]: the IC50 in data set [1] is 200 to 800 nM; against hATX/ENPP2, 20 to 200 nM; in data set [2], no more than 200 nM.
On the same counts, the results for `CCc1nc2ccc(-c3cnc(N4CCC(C(=O)N5CCOCC5)CC4)nc3)cn2c1N(C)c1nc(-c2ccc(F)cc2)c(C#N)s1` [Compound 127, 2-((2-ethyl-6-(2-(4-(morpholine-4-carbonyl)piperidin-1-yl)pyrimidin-5-yl)imidazo [1,2-a]pyridin-3-yl)(methyl)amino)-4-(4-fluorophenyl)thiazole-5-carbonitrile] are 200 to 800 nM, no more than 20 nM and no more than 200 nM.
